Results reported in patent US20110104175A1, “METHODS OF TREATMENT FOR PULMONARY FIBROSIS” (CEDARS-SINAI MEDICAL CENTER, priority 2008, published 2011).
Read-outs that look alike come from different tables or passages of the source. Peptide text beside a SMILES is read from it.

Key:
[1] = test system: wild-type, N-KO and C-KO mice; experiment: Weight loss after intratracheal instillation of bleomycin
Text: (§1) Preparation of Mice. We generated mice expressing site-inactivated ACE by homologous recombination. N-KO mice express a full length ACE protein where the N-terminal catalytic site was inactivated by mutating two zinc-binding histidines (^395H and ^399H) to lysines. In the C-KO strain, ^993H and ^997H, which are responsible for the zinc binding and catalytic activity of the C-terminal enzymatic site, were mutated to lysine. The generation of these two strains of mice has been described in detail prior. Both N-KO and C-KO mice are a genetic mix of strains 129 and C57BL/6. Age and gender-matched littermate controls were used in all studies. All mice used in this study have only one functional renin gene. Drug Administration. The administration of bleomycin was performed under anesthesia by intratracheal instillation as previously described. A small skin incision was made to expose the trachea. A 25-gauge needle was inserted directly into the trachea without reaching the bifurcation and the animals were maintained on the surgical board with a 30 degree angle to ensure a correct diffusion of the drug or saline to both lungs. Bleomycin was solubilized in water, aliquoted, lyophilized and kept at −20 C. For each experiment a fresh aliquot was dissolved in saline and, unless otherwise indicated, administered in a dose of 1 mg/kg. The concentration of the solution was adapted to inject 2 μl/g, The skin was then sutured and the animal monitored until complete recovery.
Weight loss is a typical feature secondary to bleomycin administration and is associated with the severity of the pulmonary lesions.

wild-type and N-KO mice [2] = experiment: Survival analysis after intratracheal bleomycin
Text: as §1
(§2) Absorbance was measured at 550 nm.

patients = details: cited from earlier work
wild-type and N-KO mice [3] = experiment: Lung histology 14 days after bleomycin; assay type: in vivo, mouse; details: bleomycin 0.5 mg/kg
Method: A group of 8 N-KO and 8 wild-type control mice received 0.5 mg/kg body weight of bleomycin. These animals were sacrificed 14 days later. Under deep anesthesia, the thoracic cage was opened to expose the lung. A 25 G needle was secured in the trachea and 0.8 to 1 ml of 10% buffered formalin was injected until the lungs were inflated. The trachea was then ligatured. The whole lung was carefully collected in one block with the heart and immersed in formalin overnight. The tissue was then dehydrated and paraffin embedded using standard techniques. Five micron coronal sections were obtained from the central part of the lung and were stained with either Masson's trichrome or with hematoxylin and eosin. For each animal, both right and left lobes of the lung were examined by a pathologist blinded to the genotype of the mice.

[4] = test system: wild-type, N-KO and C-KO mice
Text: as §1, §2

wild-type and N-KO mice [5] = details: for cell content of the bronchoalveolar lavage: intratracheal bleomycin without S17092, two weeks
Text: as §1, §2

[6] = mouse; cited from earlier work
[7] = test system: ACE N-domain and C-terminal domain; details: N-domain versus C-terminal domain; cited from earlier work
[8] = cited from earlier work
rats = details: model of heart infarction; cited from earlier work

## bleomycin
[1]; C-KO mice
  weight loss, C-KO mice versus wild-type controls: no significant difference in weight loss
[1]; N-KO mice
  weight loss: 1.60±1.23%
[1]; wild-type animals
  weight loss: 9.26±2.52%
wild-type and N-KO mice [2]; N-KO mice, bleomycin 5 mg/kg body weight intratracheal
  long-term survival: 4 of 15
wild-type and N-KO mice [2]; wild-type mice, bleomycin 5 mg/kg body weight intratracheal
  mice surviving 12 days after drug administration: 1 of 15
wild-type and N-KO mice [2]; wild-type or N-KO mice, bleomycin 1 mg/kg body weight intratracheal
  deaths: virtually no deaths
patients; of the patients who develop lung injury
  patients with lung injury who die of lung injury: 1-3%
patients; patients treated with bleomycin, meta-analysis
  patients developing sufficient lung injury to necessitate cessation of treatment: 10 to 50%
wild-type and N-KO mice [3]; N-KO mice
  lung histology (inflammation, collagen stripes) versus wild-type: much reduced
wild-type and N-KO mice [3]; wild-type mice
  lung histology: extensive lung injury
[4]; N-KO mice, two weeks after intratracheal bleomycin
  pulmonary collagen levels (hydroxyproline): did not increase pulmonary collagen levels
[4]; wild-type and C-KO mice, two weeks after intratracheal bleomycin
  hydroxyproline content of lungs: significantly increased the hydroxyproline content
wild-type and N-KO mice [5]; N-KO mice
  cell content of the bronchoalveolar lavage: 12.73±1.58 10^5 cells per lung
wild-type and N-KO mice [5]; wild-type mice
  cell content of the bronchoalveolar lavage: 24.21±3.10 10^5 cells per lung

## Ac-Asp-(L)Pheψ(PO2—CH2)(L)Ala-Ala-NH2 (Ac-DFAA-NH2; also: Phe2-Ala3 peptide bond replaced by phosphinic ψ(PO2-CH2) bond) [RXP 407]
[6]
  stability in vivo: stable in vivo
[7]
  dissociation constant for the ACE N-domain relative to the C-terminal domain: three orders of magnitude lower
[8]; RXP 407 combined with Ac-SDKP infusion
  elevation of plasma Ac-SDKP: 16 fold
[8]; mouse, RXP 407 alone
  increase of plasma level of Ac-SDKP: ≤ 6 fold

## CC(=O)N[C@@H](CO)C(=O)N[C@@H](CC(=O)O)C(=O)N[C@@H](CCCCN)C(=O)N1CCC[C@H]1C(=O)O [AcSDKP, N-acetyl-seryl-aspartyl-lysyl-proline] (Ac-SDKP-OH)
rats
  collagen deposition: prevented and even reversed collagen deposition
[4]; wild-type mice, AcSDKP 1 mg/kg/day by osmotic minipump, bleomycin
  collagen deposition, as assessed by hydroxyproline: did not significantly reduce the collagen deposition
wild-type and N-KO mice [5]; wild-type mice, AcSDKP 1 mg/kg/day by osmotic minipump, bleomycin on day 2, two weeks later, versus saline-filled minipump
  lavage cellularity: substantially reduced lavage cellularity
